Patent US9580399B2, “Geranyl flavonoid derivative with improved water solubility, a method for preparing the same, and a method for treating cancer using the same” (KOREA RESEARCH INSTITUTE OF BIOSCIENCE AND BIOTECHNOLOGY, priority 2014, dated 2017)
≈ marks a conversion by molar mass, not a printed value.

Legend:
[1] = Physicochemical properties: solubility; settings: for Solubility: Insolubility: solvents in which insoluble; for Solubility: Fusibility: solvents in which soluble
STAT3 = biological target: T1, STAT3 (Homo sapiens, UniProt P40763); assay: Western blotting of STAT3 expression and phosphorylation in DU-145 cells; format: cell-based; settings: DU-145, 5, 10 or 20 μM, 24 hours
T1 construct: the prostate cancer cell line DU-145 was distributed in three 60-mm plates; endogenous in cells; host or cells: DU-145 prostate cancer cells
T1 sequence (P40763 whole entry): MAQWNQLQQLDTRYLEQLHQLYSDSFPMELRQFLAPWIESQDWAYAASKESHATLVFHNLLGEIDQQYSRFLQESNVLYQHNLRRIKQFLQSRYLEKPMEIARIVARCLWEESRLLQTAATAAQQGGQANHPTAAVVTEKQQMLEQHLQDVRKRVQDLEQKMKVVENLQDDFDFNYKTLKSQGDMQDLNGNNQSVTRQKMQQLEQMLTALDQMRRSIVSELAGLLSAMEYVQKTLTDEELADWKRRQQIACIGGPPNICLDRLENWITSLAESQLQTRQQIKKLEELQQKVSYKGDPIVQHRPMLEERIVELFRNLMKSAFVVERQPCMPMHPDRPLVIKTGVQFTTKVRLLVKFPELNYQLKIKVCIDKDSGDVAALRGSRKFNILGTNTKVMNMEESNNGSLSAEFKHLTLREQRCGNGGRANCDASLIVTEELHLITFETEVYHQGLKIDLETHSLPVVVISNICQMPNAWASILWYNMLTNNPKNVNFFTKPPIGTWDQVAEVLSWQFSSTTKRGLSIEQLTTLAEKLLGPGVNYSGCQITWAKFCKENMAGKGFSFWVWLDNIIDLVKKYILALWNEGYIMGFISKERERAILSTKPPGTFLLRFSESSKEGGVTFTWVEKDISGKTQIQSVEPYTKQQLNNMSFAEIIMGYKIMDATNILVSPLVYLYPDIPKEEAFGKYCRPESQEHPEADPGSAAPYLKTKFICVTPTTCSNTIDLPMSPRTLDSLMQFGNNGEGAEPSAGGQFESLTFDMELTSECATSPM
Procedure: To investigate whether or not the novel synthesized geranyl flavonoid derivative of the present invention, CG-901-2, had the activity of inhibiting STAT3 protein activity by inhibiting STAT3 phosphorylation, Western blotting was performed to measure the expression of the phosphorylated STAT3. Particularly, the prostate cancer cell line DU-145 was distributed in three 60-mm plates containing 10% FBS (fetal bovine serum) medium at the density of 80,000 cells/plate, followed by culture in a 37° C. 5% CO2 incubator for 24 hours. Upon completion of the culture, the CG-901-2 compound prepared in Example <1-2> was treated to each plate at the concentration of 5, 10, or 20 μM. The negative control was treated with 0.25% DMSO, followed by culture for 24 hours. Then, the medium was discarded from each plate. The plate was then washed with PBS, to which 200 μl of Ripa lysis buffer was added. The cells attached on the plate were collected by using a scraper. […] The lysate mixture was placed in a 96-well plate, and […] was measured using ELISA reader in order to quantify the protein. After the quantification, the lysate containing the equal amount of protein was prepared, which was mixed with lysis buffer and 5× dye, leading to the preparation of a loading sample. […]

Mcl-1 = assay: Western blotting of STAT3 target protein expression in DU-145 cells; format: cell-based, human; settings: DU-145, 20 μM
Procedure: (§1) To investigate the changes of the expression of STAT3 target genes according to the decrease of STAT3 protein phosphorylation caused by the treatment of geranyl flavonoid derivative CG901-2, the expressions of cyclin A that is well known as a STAT3 target protein, Mcl-1 (Induced myeloid leukemia cell differentiation protein-1), and survivin were examined. Particularly, DU-145 cells were treated with the compound CG-901-2 at the concentration of 20 μM by the same manner as described in Example <2-1>, followed by culture. Western blotting was performed to investigate the expressions of AD (cyclin A), Mcl-1, and survivin. β-actin was used as the control to compare the expression levels.

cyclin A = assay: as above; format: cell-based, human; settings: DU-145, 20 μM
Procedure: as §1

survivin = assay: as above; format: cell-based, human; settings: DU-145, 20 μM
Procedure: as §1

[2] = Cancer cell growth inhibition (WST-1); format: cell-based; settings: Homo sapiens; Prostate cancer, 24 hours
Procedure: (§2) To investigate whether or not the geranyl flavonoid derivative of the present invention had cancer cell growth inhibiting effect, various human cancer cell lines were treated with CG-901-2 and then cancer cell growth was observed. Particularly, the human breast cancer cell lines MDA-MB-231 and MDA-MB-468, the prostate cancer cell line DU-145, the colorectal cancer cell line HCT116, the pancreatic cancer cell line AsPC-3, or the colon cancer cell line SW620 was distributed in 10% FBS medium, followed by culture in a 37° C. 5% CO2 incubator. The attached grown cells were collected by using trypsin-EDTA. The obtained cells were counted by hematocytometer, which were distributed in 96-well plate at the density of 5,000 cells/well (MDA-MB-231, MDA-MB-468, and DU-145) or at the density of 7,000 cells/well (HCT116 and SW620). 10% FBS medium was added to the plate, followed by culture in a 37° C. 5% CO2 incubator. 24 hours later, the cells were treated with the compound CG-901-2 prepared in Example <1-2> dissolved in DMSO at the concentration of 20 or 50 μg/ml. The negative control was treated with 0.1% DMSO. The cells were further cultured for 24 more hours. Then, 10 μl of the coloring agent, 2-[4-iodophenyl]-3-[4-nitrophenyl]-5-[2,4-disulfophenyl]-2H-tetrazolium (monosodium salt, WST-1; Roche) was treated to the cultured cells, followed by culture for 2 hours. Then, OD450 was measured with ELISA reader (Bio-Rad) to investigate the time-dependent cancer cell growth rate. For 24 hours from the treatment of the compound, the concentration of the compound that allowed only 50% of cancer cell population to survive was calculated based on the above growth rate, and the result was defined as GI50.

HCT116 = assay: Cancer cell growth inhibition (WST-1); format: cell-based; settings: Homo sapiens, HCT-116; Colorectal cancer, 24 hours
Procedure: as §2

MDA-MB-468 = assay: Cancer cell growth inhibition (WST-1); format: cell-based; settings: Homo sapiens, Breast cancer, 24 hours
Procedure: as §2

SW620 = assay: Cancer cell growth inhibition (WST-1); format: cell-based; settings: Homo sapiens, SW-620; Colon cancer, 24 hours
Procedure: as §2

[3] = tested on: various human cancer cell lines; assay: Cancer cell growth inhibition (WST-1), all cell lines together; format: cell-based
Procedure: as §2, with “Then, 10 μl of the coloring agent, 2-[4-iodophenyl]-3-[4-nitrophenyl]-5-[2,4-disulfophenyl]-2H-tetrazolium (monosodium salt, WST-1; Roche) was treated to the cultured cells, followed by culture for 2 hours.” left out, “For 24 hours from the treatment of the compound, the concentration of the compound that allowed only 50% of cancer cell population to survive was calculated based on the above growth rate, and the result was defined as GI50.” left out

DU-145 tumor = assay: In vivo tumor growth inhibition in prostate cancer mouse model; settings: 50 mg/kg oral, once a day, 10 times, compared with negative control
Procedure: Particularly, the human originated prostate cancer cell line DU-145 was inoculated in the serum-free medium, followed by culture in a 37° C. 5% CO2 incubator. The cultured DU-145 cells were prepared at the density of 3×10^7 cells/ml. Each BALB/c specific pathogen free female mouse (Nara Biotech Co.) at 6 weeks was administered with the cells at the dose of 9×10^6 cells/0.3 ml via subcutaneous injection in the auxiliary region between the right shoulder and breast wall, leading to the cancer cell transplantation. After the transplantation, the mouse was raised for 25 days until the generated tumor induced by the transplanted cancer cells grew to a measurable size. As a result, the prostate cancer mouse model was constructed. The tumor induced by the transplanted cancer cells was measured in three dimensions which were length, width, and height of the tumor, by using a vernier caliper, […], and the size of the tumor was calculated by the below mathematical formula 1. […] The tumor size was measured on day 0, day 10, day 14, day 16, day 18, day 21, day 23, and day 25. […] The size and weight of the control tumor was measured and compared with the above.

CC(C)=CCC[C@]1(C)C=Cc2c(CCC(=O)c3ccc(OCCN(C)C)cc3O)ccc(O)c2O1 [CG-901-1, (R)-1-(4-(2-(dimethylamino)ethoxy)-2-hydroxyphenyl)-3-(8-hydroxy-2-methyl-2-(4-methylpent-3-enyl)-2H-chromen-5-yl)propan-1-one]
Solubility: Insolubility [1]: Hexane
Solubility: Fusibility [1]: Alcohol, DMSO
solubility ([1]; water): 300 µM (≈ 144 µg/mL)

CC(C)=CCC[C@]1(C)C=Cc2c(CCC(=O)c3ccc(OCCN(C)C)cc3O)ccc(O)c2O1.Cl [CG-901-2, (R)-2-(3-hydroxy-4-(3-(8-hydroxy-2-methyl-2-(4-methylpent-3-enyl)-2H-chromen-5-yl)propanoyl)phenoxy)-N,N-dimethylethanaminium chloride]
Solubility: Insolubility [1]: Hexane, Ethylacetate
Solubility: Fusibility [1]: Alcohol, H2O
expression of STAT3 (STAT3): not changed
phosphorylation of STAT3 (STAT3): reduced CG-901-2 dose-dependently
expression of Mcl-1 (Mcl-1): down-regulated
expression of cyclin A (cyclin A): down-regulated
expression of survivin (survivin): down-regulated
GI50 [2]: 20 µM
GI50 (HCT116): 25 µM
GI50 (MDA-MB-468): 30 µM
GI50 (SW620): 50 µM
GI50 ([3]; Homo sapiens, MDA-MB-231, MDA-MB-468, DU-145, HCT116, AsPC-3, SW620, read-out: GI50 concentration range of each cancer cell line): 15 to 30 µM
cancer cell growth rate ([3]; compared with negative control): reduced over the time
tumor size growth inhibited (DU-145 tumor): approximately 38.8%
weight of the tumor reduced (DU-145 tumor; day 25): 40.5%
